From PubChem BioAssay (NCI)
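Results reflect a 48-hour exposure of cells in 96-well plates to compound at five concentrations. TGI marks complete inhibition of growth.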

Legend:
Assay in all cases: NCI anticancer screen, dose series, 48 h
M14 melanoma = system: M14 melanoma
MOLT-4 leukemia = system: MOLT-4 leukemia
SF-295 CNS = system: SF-295 CNS
SK-MEL-2 melanoma = system: SK-MEL-2 melanoma
HCT-116 colon = system: HCT-116 colon
SK-MEL-5 melanoma = system: SK-MEL-5 melanoma
NCI-H522 lung = system: NCI-H522 lung
SK-OV-3 ovarian = system: SK-OV-3 ovarian
SNB-19 CNS = system: SNB-19 CNS
RPMI-8226 leukemia = system: RPMI-8226 leukemia
K-562 leukemia = system: K-562 leukemia
MALME-3M melanoma = system: MALME-3M melanoma
SNB-78 CNS = system: SNB-78 CNS
ACHN renal = system: ACHN renal
HCC-2998 colon = system: HCC-2998 colon
DMS 114 small cell lung = system: DMS 114 small cell lung
DLD-1 colon = system: DLD-1 colon
HCT-15 colon = system: HCT-15 colon
UACC-257 melanoma = system: UACC-257 melanoma
KM12 colon = system: KM12 colon
SK-MEL-28 melanoma = system: SK-MEL-28 melanoma
OVCAR-5 ovarian = system: OVCAR-5 ovarian
COLO 205 colon = system: COLO 205 colon
RXF 393 renal = system: RXF 393 renal
LXFL 529 NSCLC = system: LXFL 529 NSCLC
KM20L2 colon = system: KM20L2 colon
DMS 273 small cell lung = system: DMS 273 small cell lung
HL-60(TB) leukemia = system: HL-60(TB) leukemia
UO-31 renal = system: UO-31 renal
A549 NSCLC = system: A549 NSCLC
IGROV1 ovarian = system: IGROV1 ovarian
TK-10 renal = system: TK-10 renal
NCI-H23 lung = system: NCI-H23 lung
LOX IMVI melanoma = system: LOX IMVI melanoma
SN12C renal = system: SN12C renal
U251 CNS = system: U251 CNS
EKVX NSCLC = system: EKVX NSCLC
OVCAR-3 ovarian = system: OVCAR-3 ovarian
HOP-62 NSCLC = system: HOP-62 NSCLC
786-0 renal = system: 786-0 renal
SF-268 CNS = system: SF-268 CNS
UACC-62 melanoma = system: UACC-62 melanoma
SW-620 colon = system: SW-620 colon
CCRF-CEM leukemia = system: CCRF-CEM leukemia
SF-539 CNS = system: SF-539 CNS
SR leukemia = system: SR leukemia
NCI-H226 lung = system: NCI-H226 lung
HOP-18 NSCLC = system: HOP-18 NSCLC
OVCAR-8 ovarian = system: OVCAR-8 ovarian
SNB-75 CNS = system: SNB-75 CNS
HT29 colon = system: HT29 colon
A498 renal = system: A498 renal
HOP-92 NSCLC = system: HOP-92 NSCLC
OVCAR-4 ovarian = system: OVCAR-4 ovarian
M19-MEL melanoma = system: M19-MEL melanoma
NCI-H460 lung = system: NCI-H460 lung
CAKI-1 renal = system: CAKI-1 renal

O=S(=O)(c1cccc(N=C=S)c1)c1cccc(N=C=S)c1
TGI (M14 melanoma): 25.6 µM | TGI (MOLT-4 leukemia): 30.6 µM | TGI (SF-295 CNS): 39.4 µM | TGI (SK-MEL-2 melanoma): 33.8 µM | TGI (HCT-116 colon): 32 µM | TGI (SK-MEL-5 melanoma): 36.3 µM | TGI (NCI-H522 lung): 32.8 µM | TGI (SK-OV-3 ovarian): 37.3 µM | TGI (SNB-19 CNS): > 100 µM | TGI (RPMI-8226 leukemia): 83.9 µM | TGI (K-562 leukemia): > 100 µM | TGI (MALME-3M melanoma): 34.9 µM | TGI (SNB-78 CNS): 63.5 µM | TGI (ACHN renal): 34.5 µM | TGI (HCC-2998 colon): 46.7 µM | TGI (DMS 114 small cell lung): 29.6 µM | TGI (DLD-1 colon): 40.7 µM | TGI (HCT-15 colon): 33.8 µM | TGI (UACC-257 melanoma): 38.5 µM | TGI (KM12 colon): 61.5 µM | TGI (SK-MEL-28 melanoma): 33.6 µM | TGI (OVCAR-5 ovarian): > 100 µM | TGI (COLO 205 colon): 38.1 µM | TGI (RXF 393 renal): 30 µM | TGI (LXFL 529 NSCLC): 28.5 µM | TGI (KM20L2 colon): > 100 µM | TGI (DMS 273 small cell lung): 40.6 µM | TGI (HL-60(TB) leukemia): 50 µM | TGI (UO-31 renal): 75.1 µM | TGI (A549 NSCLC): > 100 µM | TGI (IGROV1 ovarian): 34.7 µM | TGI (TK-10 renal): 40 µM | TGI (NCI-H23 lung): 32.9 µM | TGI (LOX IMVI melanoma): 31.6 µM | TGI (SN12C renal): 37.7 µM | TGI (U251 CNS): 35.4 µM | TGI (EKVX NSCLC): > 100 µM | TGI (OVCAR-3 ovarian): 24 µM | TGI (HOP-62 NSCLC): 26.5 µM | TGI (786-0 renal): 29.5 µM | TGI (SF-268 CNS): 39.8 µM | TGI (UACC-62 melanoma): 36.2 µM

O=C(CCC1C(=O)NC(=S)NC1=O)c1ccc2ccccc2c1
TGI (SW-620 colon): > 100 µM | TGI (M14 melanoma): > 100 µM | TGI (MOLT-4 leukemia): > 100 µM | TGI (CCRF-CEM leukemia): > 100 µM | TGI (SF-295 CNS): > 100 µM | TGI (SK-MEL-2 melanoma): > 100 µM | TGI (SF-539 CNS): > 100 µM | TGI (HCT-116 colon): > 100 µM | TGI (SR leukemia): > 100 µM | TGI (NCI-H226 lung): > 100 µM | TGI (SK-MEL-5 melanoma): > 100 µM | TGI (HOP-18 NSCLC): > 100 µM | TGI (NCI-H522 lung): 31.1 µM | TGI (OVCAR-8 ovarian): > 100 µM | TGI (SK-OV-3 ovarian): > 100 µM | TGI (SNB-19 CNS): > 100 µM | TGI (SNB-75 CNS): > 100 µM | TGI (K-562 leukemia): > 100 µM | TGI (MALME-3M melanoma): > 100 µM | TGI (SNB-78 CNS): > 100 µM | TGI (ACHN renal): > 100 µM | TGI (HCC-2998 colon): > 100 µM | TGI (DMS 114 small cell lung): > 100 µM | TGI (DLD-1 colon): > 100 µM | TGI (HCT-15 colon): > 100 µM | TGI (UACC-257 melanoma): > 100 µM | TGI (HT29 colon): > 100 µM | TGI (KM12 colon): > 100 µM | TGI (SK-MEL-28 melanoma): > 100 µM | TGI (OVCAR-5 ovarian): > 100 µM | TGI (COLO 205 colon): > 100 µM | TGI (RXF 393 renal): > 100 µM | TGI (LXFL 529 NSCLC): > 100 µM | TGI (KM20L2 colon): > 100 µM | TGI (DMS 273 small cell lung): > 100 µM | TGI (HL-60(TB) leukemia): > 100 µM | TGI (UO-31 renal): > 100 µM | TGI (A498 renal): > 100 µM | TGI (HOP-92 NSCLC): > 100 µM | TGI (OVCAR-4 ovarian): > 100 µM | TGI (A549 NSCLC): > 100 µM | TGI (IGROV1 ovarian): > 100 µM | TGI (TK-10 renal): > 100 µM | TGI (NCI-H23 lung): > 100 µM | TGI (M19-MEL melanoma): > 100 µM | TGI (NCI-H460 lung): > 100 µM | TGI (LOX IMVI melanoma): > 100 µM | TGI (SN12C renal): > 100 µM | TGI (U251 CNS): > 100 µM | TGI (EKVX NSCLC): > 100 µM | TGI (OVCAR-3 ovarian): > 100 µM | TGI (CAKI-1 renal): > 100 µM | TGI (HOP-62 NSCLC): > 100 µM | TGI (786-0 renal): > 100 µM | TGI (SF-268 CNS): > 100 µM | TGI (UACC-62 melanoma): > 100 µM

Cc1nc(C(=O)O)c2ccccc2n1
TGI (SW-620 colon): > 100 µM | TGI (MOLT-4 leukemia): > 100 µM | TGI (CCRF-CEM leukemia): > 100 µM | TGI (SF-295 CNS): > 100 µM | TGI (SK-MEL-2 melanoma): > 100 µM | TGI (SF-539 CNS): > 100 µM | TGI (HCT-116 colon): > 100 µM | TGI (SR leukemia): > 100 µM | TGI (SK-MEL-5 melanoma): > 100 µM | TGI (OVCAR-8 ovarian): > 100 µM | TGI (SK-OV-3 ovarian): > 100 µM | TGI (SNB-19 CNS): > 100 µM | TGI (SNB-75 CNS): > 100 µM | TGI (RPMI-8226 leukemia): > 100 µM | TGI (K-562 leukemia): > 100 µM | TGI (MALME-3M melanoma): > 100 µM | TGI (SNB-78 CNS): > 100 µM | TGI (ACHN renal): > 100 µM | TGI (HCC-2998 colon): > 100 µM | TGI (DMS 114 small cell lung): > 100 µM | TGI (DLD-1 colon): > 100 µM | TGI (UACC-257 melanoma): > 100 µM | TGI (HT29 colon): > 100 µM | TGI (KM12 colon): > 100 µM | TGI (SK-MEL-28 melanoma): > 100 µM | TGI (OVCAR-5 ovarian): > 100 µM | TGI (COLO 205 colon): > 100 µM | TGI (RXF 393 renal): > 100 µM | TGI (LXFL 529 NSCLC): > 100 µM | TGI (KM20L2 colon): > 100 µM | TGI (DMS 273 small cell lung): > 100 µM | TGI (HL-60(TB) leukemia): > 100 µM | TGI (UO-31 renal): > 100 µM | TGI (A498 renal): > 100 µM | TGI (HOP-92 NSCLC): > 100 µM | TGI (A549 NSCLC): > 100 µM | TGI (IGROV1 ovarian): > 100 µM | TGI (TK-10 renal): > 100 µM | TGI (NCI-H23 lung): > 100 µM | TGI (NCI-H460 lung): > 100 µM | TGI (SN12C renal): > 100 µM | TGI (U251 CNS): > 100 µM | TGI (OVCAR-3 ovarian): > 100 µM | TGI (CAKI-1 renal): > 100 µM | TGI (786-0 renal): > 100 µM | TGI (SF-268 CNS): > 100 µM | TGI (UACC-62 melanoma): > 100 µM
